{"source": "paper PMC2233835", "about": "(The Journal of General Physiology, 2001)", "key": {"X-βR/αC": {"target": "T1, X-βR/αC (Bos taurus, UniProt Q00194, A200G/A344S/A378F/A555S/A582V/A614G/C169F/D157S/D193E/D502E/D538A/D577E/D604Q/DEL101-144/DEL91-95/E147F/E148K/E189Q/E196F/E230D/E231L/F201L/F214C/F374V/F533Y/G160D/G591K/I156V/I181L/I182V/I235R/I504V/I530V/I566L/I609E/I611V/INS98[…]/K146T/K150R/K151W/K237N/K239I/K346C/K506R/K518R/K521Q/K554M/K590Q/K596R/K598R/L195F/L199V/L210I/L351F/L548I/M175L/M213T/M580R/M592V/M602R/N161D/N165Y/N610S/N613A/P158Q/P173A/Q599E/Q97T/R232A/R345F/R369K/S192D/S205C/S240R/S350C/S371E/S537G/S540L/S553N/T162I/T171A/T179I/T217L/T364M/T584S/V153G/V154F/V174S/V208I/V215I/V487E/V497T/V534A/Y194N/Y197L)", "T1 sequence (Q00194 with tags, fused parts or gaps DEL91-95/Q97T/INS98[…]/DEL101-144/K146T/E147F/E148K/K150R/K151W/V153G/V154F/I156V/D157S/P158Q/G160D/N161D/T162I/N165Y/C169F/T171A/P173A/V174S/M175L/T179I/I181L/I182V/E189Q/S192D/D193E/Y194N/L195F/E196F/Y197L/L199V/A200G/F201L/S205C/V208I/L210I/M213T/F214C/V215I/T217L/E230D/E231L/R232A/I235R/K237N/K239I/S240R/A344S/R345F/K346C/S350C/L351F/T364M/R369K/S371E/F374V/A378F/V487E/V497T/D502E/I504V/K506R/K518R/K521Q/I530V/F533Y/V534A/S537G/D538A/S540L/L548I/S553N/K554M/A555S/I566L/D577E/M580R/A582V/T584S/K590Q/G591K/M592V/K596R/K598R/Q599E/M602R/D604Q/I609E/N610S/I611V/N613A/A614G)": "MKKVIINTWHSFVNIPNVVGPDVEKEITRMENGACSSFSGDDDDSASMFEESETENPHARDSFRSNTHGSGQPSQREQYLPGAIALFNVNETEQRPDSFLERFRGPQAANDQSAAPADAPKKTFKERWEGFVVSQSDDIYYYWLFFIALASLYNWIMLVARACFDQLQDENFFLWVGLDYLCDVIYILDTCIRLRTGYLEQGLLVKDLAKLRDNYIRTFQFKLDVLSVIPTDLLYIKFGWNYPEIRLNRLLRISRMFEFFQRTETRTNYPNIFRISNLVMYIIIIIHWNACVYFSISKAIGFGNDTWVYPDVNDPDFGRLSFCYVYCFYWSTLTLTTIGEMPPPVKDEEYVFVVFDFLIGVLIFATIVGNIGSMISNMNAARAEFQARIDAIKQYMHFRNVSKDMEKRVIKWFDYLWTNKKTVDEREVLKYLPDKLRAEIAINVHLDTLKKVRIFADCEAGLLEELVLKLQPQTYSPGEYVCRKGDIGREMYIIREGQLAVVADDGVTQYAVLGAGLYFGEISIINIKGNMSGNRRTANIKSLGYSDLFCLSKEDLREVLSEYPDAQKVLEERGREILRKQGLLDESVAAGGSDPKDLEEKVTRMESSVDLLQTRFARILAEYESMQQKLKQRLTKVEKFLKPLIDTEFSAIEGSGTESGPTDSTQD", "assay": "Macroscopic current dose–response in inside-out patches from Xenopus oocytes", "assay_type": "cell-based, chimera of bovine CNG1, catfish CNG2 and rat CNG5"}, "X-β homomeric channels": {"target": "T2, X-β homomeric channels (Bos taurus, UniProt Q00194, A200G/A344S/A378F/A555S/A582V/A612E/C169F/D157S/D193E/D502E/D538A/D577E/D588Q/D604M/DEL101-144/DEL91-95/E147F/E148K/E189Q/E196F/E230D/E231L/F201L/F214C/F374V/F533Y/G160D/G591A/G605N/I156V/I181L/I182V/I235R/I504V/I530V/I566L/I609V/I611A/INS98[…]/K146T/K150R/K151W/K237N/K239I/K346C/K506R/K518R/K521Q/K554M/K590Q/K598R/L195F/L199V/L210I/L351F/L548I/L593M/L606K/M175L/M213T/M580R/M592V/M602L/N161D/N165Y/N613A/P158Q/P173A/Q599E/Q97T/R232A/R345F/R369K/S192D/S205C/S240R/S350C/S371E/S537G/S540L/S553N/T162I/T171A/T179I/T217L/T364M/T584S/V153G/V154F/V174S/V208I/V215I/V487E/V497T/V534A/Y194N/Y197L)", "T2 sequence (Q00194 with tags, fused parts or gaps DEL91-95/Q97T/INS98[…]/DEL101-144/K146T/E147F/E148K/K150R/K151W/V153G/V154F/I156V/D157S/P158Q/G160D/N161D/T162I/N165Y/C169F/T171A/P173A/V174S/M175L/T179I/I181L/I182V/E189Q/S192D/D193E/Y194N/L195F/E196F/Y197L/L199V/A200G/F201L/S205C/V208I/L210I/M213T/F214C/V215I/T217L/E230D/E231L/R232A/I235R/K237N/K239I/S240R/A344S/R345F/K346C/S350C/L351F/T364M/R369K/S371E/F374V/A378F/V487E/V497T/D502E/I504V/K506R/K518R/K521Q/I530V/F533Y/V534A/S537G/D538A/S540L/L548I/S553N/K554M/A555S/I566L/D577E/M580R/A582V/T584S/D588Q/K590Q/G591A/M592V/L593M/K598R/Q599E/M602L/D604M/G605N/L606K/I609V/I611A/A612E/N613A)": "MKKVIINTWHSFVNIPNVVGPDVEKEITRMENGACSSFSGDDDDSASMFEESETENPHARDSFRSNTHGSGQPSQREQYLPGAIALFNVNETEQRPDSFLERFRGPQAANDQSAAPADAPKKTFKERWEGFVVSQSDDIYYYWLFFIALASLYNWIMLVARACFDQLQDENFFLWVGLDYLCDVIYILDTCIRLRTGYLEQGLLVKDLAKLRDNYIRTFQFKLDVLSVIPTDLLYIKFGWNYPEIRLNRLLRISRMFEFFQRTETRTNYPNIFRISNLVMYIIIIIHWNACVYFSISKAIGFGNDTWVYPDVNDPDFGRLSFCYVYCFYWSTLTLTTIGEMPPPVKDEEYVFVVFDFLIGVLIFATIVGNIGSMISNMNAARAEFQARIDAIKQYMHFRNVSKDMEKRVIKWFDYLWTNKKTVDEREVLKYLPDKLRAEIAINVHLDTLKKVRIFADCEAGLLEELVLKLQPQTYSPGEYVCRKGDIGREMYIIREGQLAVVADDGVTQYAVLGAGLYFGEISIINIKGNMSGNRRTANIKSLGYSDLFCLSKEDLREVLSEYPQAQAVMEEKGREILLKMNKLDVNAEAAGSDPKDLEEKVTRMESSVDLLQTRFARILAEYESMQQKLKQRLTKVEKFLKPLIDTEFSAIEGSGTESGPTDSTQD", "assay": "Macroscopic current dose–response in inside-out patches from Xenopus oocytes", "assay_type": "cell-based, chimera of bovine CNG1, catfish CNG2 and rat CNG5", "details": "for Hill coefficient h: −100 mV"}, "ROON-S2": {"system": "ROON-S2", "details": "mean ± SD, ref Tibbs et al. 1997, Tibbs et al. 1998; cited from earlier work"}}}
{"smiles": "Nc1nc2c(ncn2[C@@H]2O[C@@H]3COP(=O)([O-])O[C@H]3[C@H]2O)c(=O)[nH]1.[Na+]", "note": "[cGMP]", "values": [{"measurement": "Desensitization", "setting": "X-βR/αC", "value": "No"}, {"measurement": "Hill coefficient h", "setting": "X-βR/αC; one patch (Fig. 6 B2), −100 mV, Hill fit ± SE", "value": "1.95 ± 0.22"}, {"measurement": "Desensitization", "setting": "X-β homomeric channels; agonist up to 30 mM", "value": "no evidence for this desensitization and No"}, {"measurement": "agonist character", "setting": "X-β homomeric channels; macroscopic currents", "value": "full agonists"}, {"measurement": "Hill coefficient h", "setting": "X-β homomeric channels; one patch (Fig. 1C), Hill fit ± SE", "value": "1.94 ± 0.13"}, {"measurement": "Hill coefficient h", "setting": "X-β homomeric channels; mean ± SD of individual patches", "value": "2.07 ± 0.27 (9)"}, {"measurement": "Hill coefficient h", "setting": "ROON-S2", "value": "1.89 ± 0.38 (10)"}]}
